From PubChem BioAssay (NCI)
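Method: 48-hour compound exposure of cells in 96-well plates, five concentrations, linear interpolation of endpoints. Definition used: TGI = concentration required for complete inhibition of growth.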

Columns and labels:
Assay in all cases: NCI tumour cell line growth inhibition, 48 h
HCT-15 colon = test system: HCT-15 colon
HCC-2998 colon = test system: HCC-2998 colon
SNB-19 CNS = test system: SNB-19 CNS
SK-MEL-5 melanoma = test system: SK-MEL-5 melanoma
UACC-257 melanoma = test system: UACC-257 melanoma
SNB-75 CNS = test system: SNB-75 CNS
OVCAR-5 ovarian = test system: OVCAR-5 ovarian
HCT-116 colon = test system: HCT-116 colon
NCI-H522 lung = test system: NCI-H522 lung
OVCAR-8 ovarian = test system: OVCAR-8 ovarian
786-0 renal = test system: 786-0 renal
RPMI-8226 leukemia = test system: RPMI-8226 leukemia
ACHN renal = test system: ACHN renal
A498 renal = test system: A498 renal
UACC-62 melanoma = test system: UACC-62 melanoma
RXF 393 renal = test system: RXF 393 renal
HOP-92 NSCLC = test system: HOP-92 NSCLC

SMILES	TGI (HCT-15 colon) [µM]	TGI (HCC-2998 colon) [µM]	TGI (SNB-19 CNS) [µM]	TGI (SK-MEL-5 melanoma) [µM]	TGI (UACC-257 melanoma) [µM]	TGI (SNB-75 CNS) [µM]	TGI (OVCAR-5 ovarian) [µM]	TGI (HCT-116 colon) [µM]	TGI (NCI-H522 lung) [µM]	TGI (OVCAR-8 ovarian) [µM]	TGI (786-0 renal) [µM]	TGI (RPMI-8226 leukemia) [µM]	TGI (ACHN renal) [µM]	TGI (A498 renal) [µM]	TGI (UACC-62 melanoma) [µM]	TGI (RXF 393 renal) [µM]	TGI (HOP-92 NSCLC) [µM]
COc1ccc2[nH]c3c(c2c1)CCn1c-3nc2ccccc2c1=O	> 25	> 25	> 25	> 25	> 25	> 25	> 25	> 25	> 25	> 25	> 25	> 25	> 25				
N#Cc1c(N)oc(-c2cccc([N+](=O)[O-])c2)c1C#N	30.7	33.6	74.6	37.7	48.9	98.2	> 100	> 100	59.1	44.1	68.3	59.8	34.8	61.7	> 100	57.3	37.7
CCC(NC(C)c1ccccc1)C(O)c1ccc(OCc2ccccc2)c(OCc2ccccc2)c1 (stereo not drawn)	29.9	6.49	28.6	14.4	13.8	23.2	26.3	27.7	35.1	30.1	27.1	10.7	32.2	39.1	33.7	23	16.7
CN(CCO)c1nc2c(c(=O)[nH]1)CCC2	> 100	> 100	> 100	> 100	> 100	> 100	> 100	> 100	> 100	> 100	> 100	> 100	> 100		> 100	> 100	> 100
O=C(c1ccccc1)c1ccc(COc2ccc(C(c3c(O)c4ccccc4oc3=O)c3c(O)c4ccccc4oc3=O)cc2)cc1	> 100	33.5	58.6	37.2	38.7	32.7	38.9	> 100	38.1	37.2	61.5	38.4	38.1		30	44.5	
CC(=O)C1=CSC2[C@H](NC(=O)Cc3ccccc3)C(=O)N2C1C(=O)OC(c1ccccc1)c1ccccc1 (stereo partly drawn)		> 100	> 100	> 100	> 100	> 100		> 100	> 100	> 100	> 100	> 100		> 100	> 100		> 100
CCOC1(COP(=O)(OCc2ccccc2)OCc2ccccc2)COC(COP(=O)(OCc2ccccc2)OCc2ccccc2)(OCC)CO1 (stereo not drawn)	> 100	> 100	> 100	> 100	> 100		> 100	> 100	> 100	> 100	> 100	> 100	> 100		> 100	> 100	> 100
CNC(=O)N1CN(c2ccccc2)C2(CCN(CCCC(=O)c3ccc(F)cc3)CC2)C1=O	33.6	22.2	> 100	26.7	24.2	> 100	29	24.6	56.6	> 100	87.1	34	75.5		43.4	54.6	
N#CC(C#N)=Cc1ccc2c(c1)OC(Cl)O2 (stereo not drawn)	46.4		66.4	35.1	41	75.4	37.1	38.6		> 100	35.2	> 100	36		59.3	52.3	
CCOC(=O)c1c(N2CCCC2)nsc1Nc1ccccc1	> 100	> 100	> 100	> 100	> 100	> 100	> 100	> 100		> 100	> 100	> 100	> 100	> 100		> 100	> 100
O=[N+]([O-])/C=C1\COCc2cc3c(cc21)OCO3	36.2	32.9		39.9	40.9	38.9	43.4	39.6	40.2	84.4	44.3	68.5	43.3	42	51.8	38.9	> 100
CCOC(=O)c1nc2ccc([N+](=O)[O-])cc2c2c1CCO2	> 100	> 100	> 100	> 100	> 100	> 100	> 100	> 100	> 100	> 100	> 100		> 100	> 100	> 100	> 100	
CN(C)CCNC(=O)c1cccc2c(NCC(=O)O)c3ccccc3nc12	> 100		72.1	67.3		64	> 100	67.4	35.3	38.5	62.7	> 100	> 100	57.9	48.1		> 100
CC12NN=NC1C(=O)NC2=O (stereo not drawn)	> 100	> 100	> 100	> 100	> 100	> 100		> 100	> 100	> 100	> 100	> 100	> 100	> 100	> 100		> 100
C=CCc1cc(OC)c2c(c1)C(O)CC(c1ccccc1)O2 (stereo not drawn)	> 100	> 100	> 100	> 100	> 100	> 100	> 100	> 100	> 100	> 100	> 100		> 100		> 100		> 100
